According to patent US20240009224A1, “ACYCLIC THREONINOL NUCLEIC ACID” (The University of Tokyo, priority 2021, published 2024):
{Fluorescein} = fluorescein label

Tested on: HeLa cells
Experiment: Flow cytometry of HeLa cells after introduction of fluorescein-labeled nucleic acid (cell membrane permeability)
Assay type: cell-based
Conditions: fluorescein-labeled control DNA = 1
Protocol: HeLa cells were cultured in Dulbecco's modified Eagle's medium (DMEM, manufactured by Thermo Fisher Scientific, Inc.) supplemented with 10% FBS and 0.5% penicillin/streptomycin in a humidified atmosphere (5 vol % CO2) at 37° C. Cells for image analysis were cultured in a 35 mm glass bottom dish (IWAKI, manufactured by AGC Techno Glass Co., Ltd.).
[…] On the day after seeding, the medium in each well was changed to DMEM medium (1 mL) containing a fluorescein-conjugated nucleic acid (2.5 μM) and incubated for 4 or 24 hours. Then, after washing the cell layer in the well twice with PBS, the cells were detached by treatment with 0.05% (w/v) trypsin (200 μL) at 37° C. for 5 minutes. The recovered cells were suspended in DMEM (600 μL). The cell suspension was separated by centrifugation process (400×g, 3 minutes), and PBS/1% BSA (500 μL) was added thereto. The ratio of fluorescent cells in this cell suspension and the mean fluorescence intensity were analyzed with a flow cytometer (“guava easyCyte8”, manufactured by Luminex Corporation).
After introducing a nucleic acid (fluorescein-labeled aTNA-N5[PFC8]) in which fluorescein was bound to the 3′-end of the synthesized aTNA-N5[PFC8] into HeLa cells, flow cytometry was performed, and the number of cells into which the fluorescein-labeled nucleic acid was introduced and the amount of fluorescein-labeled nucleic acid introduced into each cell were quantified based on the fluorescence intensity of fluorescein. As a control, a nucleic acid in which fluorescein was bound to the 3′-end of the control DNA (fluorescein-labeled control DNA) was also introduced into HeLa cells in the same manner and then analyzed by flow cytometry.
The fluorescein-labeled aTNA-N5[PFC8] produced in Example 1 was hybridized with a single-stranded DNA (control rDNA) composed of a base sequence (SEQ ID NO: 2) complementary to that of the control DNA to produce a fluorescein-labeled double-stranded DNA (fluorescein-labeled aTNA-N5[PFC8]/rDNA) having a repeating structure of the structure (A1) at the 5′-end and bound with fluorescein at the 3′-end. […] These fluorescein-labeled double-stranded DNAs were introduced into HeLa cells and then analyzed by flow cytometry in the same manner as in Example 1.
After respectively introducing nucleic acids (fluorescein-labeled aTNA-C2[PFC8] and fluorescein-labeled aTNA-C5[PFC8]) in which fluorescein was bound to the 3′-ends of the synthesized aTNA-C2[PFC8] and aTNA-C5[PFC8] into HeLa cells, flow cytometry was performed, and the number of cells into which the fluorescein-labeled nucleic acid was introduced and the amount of fluorescein-labeled nucleic acid introduced into each cell were quantified based on the fluorescence intensity of fluorescein. […]

Measured: Relative fluorescence intensity of cells into which fluorescein-labeled nucleic acid was introduced

Control DNA: control DNA (Seq. No. 1), natural single stranded DNA; fluorescein bound to the 3′-end (DNA TTTTTCAGTTGACCATATA; DNA, 3' {Fluorescein}, backbone and methylation of C not given here)
1.0: Example 1, single-stranded, 2.5 μM, 4 or 24 hours | Example 3, single-stranded | Example 4, single-stranded, 96-well plate, 10^4 cells per well, 2.5 μM, 4 hours | Example 6, single-stranded, 96-well plate, 10^4 cells per well, 2.0 μM, 4 hours
